Measurements reported in the supplement of paper PMC11061612.

How the values were obtained:
Paclitaxel = compound: CC(=O)O[C@H]1C(=O)[C@@]2(C)[C@H]([C@H](OC(=O)c3ccccc3)[C@]3(O)C[C@H](OC(=O)[C@H](O)[C@@H](NC(=O)c4ccccc4)c4ccccc4)C(C)=C1C3(C)C)[C@]1(OC(C)=O)CO[C@@H]1C[C@@H]2O [Paclitaxel]; details: max 3 µM
In short: (§1)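 Cancer cell lines were plated in 1536-well plates in 7.5 μl of DMEM/F12 or RPMI with 10% FBS and kept 24 hours at 37°C and 5% CO2 before 72 hours of dosing, with final DMSO typically 0.2%. CellTiter-Glo 2.0 luminescence measured viability, scaled between blank-well and DMSO-well means. Dose responses were fitted to a two-parameter logistic curve with a non-linear mixed effects model. This fit gives the single-agent IC50.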

AZD5363 = compound: C1CN(CCC1(C(=O)N[C@@H](CCO)C2=CC=C(C=C2)Cl)N)C3=NC=NC4=C3C=CN4 [AZD5363]; details: max 10 µM
In short: as §1

[1] = compound: O=C(Nc1ccc2[nH]nc(-c3ccncc3)c2c1)[C@@H]1CCN(CC(=O)N2CCN(c3ccc(-c4ncccn4)cc3)CC2)C1; details: max 5 µM
In short: as §1

AZD1390 = compound: CC(C)n1c(=O)n(C)c2cnc3cc(F)c(-c4ccc(OCCCN5CCCCC5)nc4)cc3c21 [AZD1390]; details: max 0.3 µM
In short: as §1

Palbociclib = compound: CC(=O)c1c(C)c2cnc(Nc3ccc(N4CCNCC4)cn3)nc2n(C2CCCC2)c1=O [Palbociclib]; details: max 10 µM
In short: as §1

MK-2206 = compound: NC1(c2ccc(-c3nc4ccn5c(=O)[nH]nc5c4cc3-c3ccccc3)cc2)CCC1 [MK-2206]; details: max 10 µM
In short: as §1

Dasatinib = compound: CC1=C(C(=CC=C1)Cl)NC(=O)C2=CN=C(S2)NC3=CC(=NC(=N3)C)N4CCN(CC4)CCO [Dasatinib]; details: max 2 µM
In short: as §1

Lapatinib = compound: CS(=O)(=O)CCNCc1ccc(-c2ccc3ncnc(Nc4ccc(OCc5cccc(F)c5)c(Cl)c4)c3c2)o1 [Lapatinib]; details: max 10 µM
In short: as §1

Prexasertib = compound: COc1cccc(OCCCN)c1-c1cc(Nc2cnc(C#N)cn2)n[nH]1 [Prexasertib]; details: max 1 µM
In short: as §1

AZD0156 = compound: CN(C)CCCOc1ccc(-c2ccc3ncc4c(c3c2)n(C2CCOCC2)c(=O)n4C)cn1 [AZD0156]; details: max 3 µM
In short: as §1

Gemcitabine = compound: Nc1ccn([C@@H]2O[C@H](CO)[C@@H](O)C2(F)F)c(=O)n1 [Gemcitabine]; details: max 0.3 µM
In short: as §1

Etoposide = compound: COc1cc([C@@H]2c3cc4c(cc3[C@@H](O[C@@H]3O[C@@H]5CO[C@@H](C)O[C@H]5[C@H](O)[C@H]3O)[C@H]3COC(=O)[C@H]23)OCO4)cc(OC)c1O [Etoposide]; details: max 10 µM
In short: as §1

Carboplatin = compound: C1CC(C1)(C(=O)[O-])C(=O)[O-].N.N.[Pt+2] [Carboplatin]; details: max 10 µM
In short: as §1

Doxorubicin = compound: COc1cccc2c1C(=O)c1c(O)c3c(c(O)c1C2=O)C[C@@](O)(C(=O)CO)C[C@@H]3O[C@H]1C[C@H](N)[C@H](O)[C@H](C)O1 [Doxorubicin]; details: max 1 µM
In short: as §1

Savolitinib = compound: C[C@@H](c1ccc2nccn2c1)n1nnc2ncc(-c3cnn(C)c3)nc21 [Savolitinib]; details: max 1 µM
In short: as §1

SN-38 = compound: CCc1c2c(nc3ccc(O)cc13)-c1cc3c(c(=O)n1C2)COC(=O)[C@]3(O)CC [SN-38]; details: max 0.3 µM
In short: as §1

Taselisib = compound: Cc1nc(-c2cn3c(n2)-c2ccc(-c4cnn(C(C)(C)C(N)=O)c4)cc2OCC3)n(C(C)C)n1 [Taselisib]; details: max 10 µM
In short: as §1

AZD4320 = compound: CN(CC[C@H](CSC1=CC=CC=C1)NC2=C(C=C(C=C2)S(=O)(=O)NC(=O)C3=CC=C(C=C3)N4CCC(CC4)[C@H](C5=CC=CC=C5C6=CC=C(C=C6)Cl)O)S(=O)(=O)C(F)(F)F)CCO [AZD4320]; details: max 1 µM
In short: as §1

Trametinib = compound: CC(=O)Nc1cccc(-n2c(=O)n(C3CC3)c(=O)c3c(Nc4ccc(I)cc4F)n(C)c(=O)c(C)c32)c1 [Trametinib]; details: max 1 µM
In short: as §1

AZD8186 = compound: C[C@@H](Nc1cc(F)cc(F)c1)c1cc(C(=O)N(C)C)cc2c(=O)cc(N3CCOCC3)oc12 [AZD8186]; details: max 10 µM
In short: as §1

AZD1775 = compound: C=CCn1c(=O)c2cnc(Nc3ccc(N4CCN(C)CC4)cc3)nc2n1-c1cccc(C(C)(C)O)n1 [AZD1775]; details: max 3 µM
In short: as §1

5-Fluorouracil = compound: O=c1[nH]cc(F)c(=O)[nH]1 [5-Fluorouracil]; details: max 20 µM
In short: as §1

Gefitinib = compound: COc1cc2ncnc(Nc3ccc(F)c(Cl)c3)c2cc1OCCCN1CCOCC1 [Gefitinib]; details: max 10 µM
In short: as §1

Olaparib = compound: O=C(c1cc(Cc2n[nH]c(=O)c3ccccc23)ccc1F)N1CCN(C(=O)C2CC2)CC1 [Olaparib]; details: max 10 µM
In short: as §1

SRA737 = compound: N#Cc1cnc(Nc2cc(NC[C@H]3CNCCO3)c(C(F)(F)F)cn2)cn1 [SRA737]; details: max 10 µM
In short: as §1

AZD5153 = compound: COc1nnc2ccc(N3CCC(c4ccc(OCCN5CCN(C)C(=O)[C@H]5C)cc4)CC3)nn12 [AZD5153]; details: max 1 µM
In short: as §1

Crizotinib = compound: C[C@@H](Oc1cc(-c2cnn(C3CCNCC3)c2)cnc1N)c1c(Cl)ccc(F)c1Cl [Crizotinib]; details: max 10 µM
In short: as §1

AZD6738 = compound: C[C@@H]1COCCN1C2=NC(=NC(=C2)C3(CC3)[S@](=N)(=O)C)C4=C5C=CNC5=NC=C4 [AZD6738]; details: max 10 µM
In short: as §1

Selumetinib = compound: Cn1cnc2c(F)c(Nc3ccc(Br)cc3Cl)c(C(=O)NOCCO)cc21 [Selumetinib]; details: max 10 µM
In short: as §1

Alisertib = compound: COc1cc(Nc2ncc3c(n2)-c2ccc(Cl)cc2C(c2c(F)cccc2OC)=NC3)ccc1C(=O)O [Alisertib]; details: max 10 µM
In short: as §1

AZD2811 = compound: CCN(CCO)CCCOc1ccc2c(Nc3cc(CC(=O)Nc4cccc(F)c4)[nH]n3)ncnc2c1 [AZD2811]; details: max 1 µM
In short: as §1

AZD7648 = compound: Cc1cc2ncnn2cc1Nc1ncc2c(n1)n(C1CCOCC1)c(=O)n2C [AZD7648]; details: max 10 µM
In short: as §1

AZD5991 = compound: Cc1c2c(nn1C)CSCc1cc(n(C)n1)CSc1cc(c3ccccc3c1)OCCCc1c(C(=O)O)n(C)c3c-2c(Cl)ccc13 [AZD5991]; details: max 1 µM
In short: as §1

Venetoclax = compound: CC1(C)CCC(CN2CCN(c3ccc(C(=O)NS(=O)(=O)c4ccc(NCC5CCOCC5)c([N+](=O)[O-])c4)c(Oc4cnc5[nH]ccc5c4)c3)CC2)=C(c2ccc(Cl)cc2)C1 [Venetoclax]; details: max 1 µM
In short: as §1

SG3199 = compound: CC1=CN2[C@@H](C1)C=NC3=CC(=C(C=C3C2=O)OC)OCCCCCOC4=C(C=C5C(=C4)N=C[C@@H]6CC(=CN6C5=O)C)OC [SG3199]; details: max 0.001 µM
In short: as §1

Cell Line | IC50, cell viability 72 h (Paclitaxel) [nM] | IC50, cell viability 72 h (AZD5363) [nM] | IC50, cell viability 72 h [1] [nM] | IC50, cell viability 72 h (AZD1390) [nM] | IC50, cell viability 72 h (Palbociclib) [nM] | IC50, cell viability 72 h (MK-2206) [nM] | IC50, cell viability 72 h (Dasatinib) [nM] | IC50, cell viability 72 h (Lapatinib) [nM] | IC50, cell viability 72 h (Prexasertib) [nM] | IC50, cell viability 72 h (AZD0156) [nM] | IC50, cell viability 72 h (Gemcitabine) [nM] | IC50, cell viability 72 h (Etoposide) [nM] | IC50, cell viability 72 h (Carboplatin) [nM] | IC50, cell viability 72 h (Doxorubicin) [nM] | IC50, cell viability 72 h (Savolitinib) [nM] | IC50, cell viability 72 h (SN-38) [nM] | IC50, cell viability 72 h (Taselisib) [nM] | IC50, cell viability 72 h (AZD4320) [nM] | IC50, cell viability 72 h (Trametinib) [nM] | IC50, cell viability 72 h (AZD8186) [nM] | IC50, cell viability 72 h (AZD1775) [nM] | IC50, cell viability 72 h (5-Fluorouracil) [nM] | IC50, cell viability 72 h (Gefitinib) [nM] | IC50, cell viability 72 h (Olaparib) [nM] | IC50, cell viability 72 h (SRA737) [nM] | IC50, cell viability 72 h (AZD5153) [nM] | IC50, cell viability 72 h (Crizotinib) [nM] | IC50, cell viability 72 h (AZD6738) [nM] | IC50, cell viability 72 h (Selumetinib) [nM] | IC50, cell viability 72 h (Alisertib) [nM] | IC50, cell viability 72 h (AZD2811) [nM] | IC50, cell viability 72 h (AZD7648) [nM] | IC50, cell viability 72 h (AZD5991) [nM] | IC50, cell viability 72 h (Venetoclax) [nM] | IC50, cell viability 72 h (SG3199) [nM]
SK-N-AS (Neuroblastoma) | 299 | > 10000 | > 5000 | > 300 | > 10000 | > 10000 | > 2000 | > 10000 | 10 | > 3000 | 232 | > 10000 | > 10000 | > 1000 | > 1000 | 81.2 | > 10000 | > 1000 | 126 | > 10000 | 1000 | > 20000 | > 10000 | > 10000 | 8030 | > 1000 | > 10000 | 2940 | > 10000 | 780 | > 1000 | > 10000 | > 1000 | > 1000 | > 1
SKN (Other Solid Carcinomas) | 95.3 | 5640 | > 5000 | > 300 | > 10000 | > 10000 | 179 | > 10000 | > 1000 | > 3000 | > 300 | > 10000 | > 10000 | > 1000 | > 1000 | > 300 | 2870 | > 1000 | > 1000 | 1840 | > 3000 | > 20000 | > 10000 | > 10000 | > 10000 | 446 | > 10000 | > 10000 | > 10000 | > 10000 | > 1000 | > 10000 | > 1000 | > 1000 | > 1
SNU-387 (Hepatocellular Carcinoma) | 27.4 | > 10000 | > 5000 | > 300 | > 10000 | > 10000 | > 2000 | > 10000 | 555 | > 3000 | > 300 | > 10000 | > 10000 | > 1000 | > 1000 | > 300 | > 10000 | > 1000 | 583 | 8360 | 1030 | > 20000 | > 10000 | > 10000 | > 10000 | > 1000 | > 10000 | > 10000 | > 10000 | > 10000 | > 1000 | > 10000 | > 1000 | > 1000 | > 1
SW872 (Other Solid Carcinomas) | 210 | > 10000 | > 5000 | > 300 | > 10000 | > 10000 | > 2000 | > 10000 | 156 | > 3000 | 69.1 | 6820 | > 10000 | 784 | > 1000 | 20.9 | 8840 | > 1000 | > 1000 | > 10000 | > 3000 | 8430 | > 10000 | > 10000 | > 10000 | 793 | > 10000 | > 10000 | > 10000 | > 10000 | > 1000 | > 10000 | > 1000 | > 1000 | > 1
SW982 (Other Solid Carcinomas) | 6.45 | > 10000 | 2850 | > 300 | 4390 | > 10000 | 68 | > 10000 | 91.3 | > 3000 | 13.6 | 789 | > 10000 | 80.4 | > 1000 | 9.38 | 2620 | > 1000 | 702 | 4650 | 1140 | 11300 | > 10000 | > 10000 | > 10000 | 63.3 | 3590 | 5530 | > 10000 | 1040 | 444 | > 10000 | > 1000 | > 1000 | > 1
